# Measured values as given in patent US20220354852A1, “TARGETING WNT SIGNALING FOR IMPROVED GLIOMA IMMUNOTHERAPY” (CITY OF HOPE, priority 2021, published 2022).
# “Also recorded” adds a separate entry of the source.
# Columns and labels:
# Format in all cases: cell-based
# [1] = tested on: CAR T cells (HER2 and mock); assay: Viability and cell count of CAR T / mock T cells treated with ICG-001; settings: ICG001 0, 2.5, 5 uM for 24-72 h
# Procedure: FIG. 27. T cells treated with ICG001 2.5 and 5 μM for 24 or 72 h. (A) CAR Ts mock and HER2 from one donor and mock CARs derived from two additional donors were plated on 6-well format plates and treated with ICG001 at concentrations 0-5 μM for 24 or 72 h. Cells were collected from each well, counted, and viability was determined. (B, C) NanoString analysis of T cells treated with ICG-001 to determine concentration-dependent metabolic changes. […] (E) Correlation of differential gene expression in all T cell lines combined at concentration of 2.5 and 5 μM.
# FIG. 29 is a bar graph showing the results of studies where CAR T calls are treated with ICG001 for 24 hours according to some embodiments. To determine how treatment with ICG001 affects the T cells, the following method was employed. On day 1, CAR Ts HER 2 or Mock CARs derived from the same donor and additional 2 donor mock cells were plated on 6 well format plates and treated with ICG001 0 uM, 2.5 uM, 5 uM for 24-72 h. On day 5, cells were collected per well, counted, cell viability was determined [pellets were frozen]. […] Note: CAR T from 494 donor treated with ICG001 were used in cytotoxicity assay #19 in comparison with untreated 4949 CARs.
# [2] = tested on: Wnt target genes BIRC5/Survivin and EphB2; assay: Quantitative RT-PCR of Wnt target genes in mouse glioma cell lines
# Procedure: FIG. 15. Expression of target genes post-ICG-001 treatment (0-10 μM) by RT-PCR using (A-C) mouse Survivin in GL261-IL13, GL261, and K-luc cells. (D) Survivin in PBT147 human glioma cells. (E, F) Luciferase reporter assay indicating downregulation of Survivin/BIRC5 in PBT017 and PBT030 cell lines.
# FIG. 16 is a table showing the expression of the target genes survivin/BIRC5 post-ICG-001 treatment ([…]) as detected by RT-PCR and Luciferase Reporter Assay.
# ICG-001 differentially affects the expression of the Wnt target genes BIRC5/Survivin and EphB2 in vitro. […] The effects of ICG-001 on Wnt/CBP/β-catenin signaling were further confirmed using a Survivin-luciferase reporter assay (FIG. 15). ICG-001's selective effects on the expression of Survivin and EphB2 may serve as indicators of ICG-001 on target tissue activity in vivo (FIG. 16) and a readout for pharmacokinetics/pharmacodynamics (PK/PD) as used previously in clinical trials with the second-generation CBP/β-catenin specific antagonist PRI-724 (Anthony et al. 2013).
# [3] = tested on: PBT147 and PBT030 metabolic pathways; assay: NanoString nCounter human metabolic panel of PBT147 and PBT030 cells
# Procedure: FIG. 8. NanoString analysis of human metabolic pathways after treatment with ICG-001. The profiling panel consists of 770 genes targeting six fundamental themes: neurotransmission, neuron-glia interactions, neuroplasticity, cell structure integrity, neuroinflammation, and metabolism. Each assay also includes six positive and eight negative RNA assay controls, plus ten mRNA housekeeping controls. RNA was hybridized with the Codeset from the gene panel at 65° C. for 16 h. The post-hybridization probe-target mixture were quantified using the nCounter Digital Analyzer, and all data analysis was performed on nSolver (NanoString Technologies) metabolic panel. All raw data was normalized with internal positive and negative controls to eliminate variability unrelated to the samples, then normalized to the selected housekeeping genes using Geometric Means methods.
# FIG. 17. (A-F) NanoString analysis of human metabolic pathways after treatment with ICG-001. The profiling panel consisted of 770 genes targeting six fundamental themes: neurotransmission, neuron-glia interactions, neuroplasticity, cell structure integrity, neuroinflammation, and metabolism. Each assay also included six positive and eight negative RNA assay controls and ten mRNA housekeeping controls. RNA was hybridized with the Codeset from the gene panel at 65° C. for 16 h. The post-hybridization probe-target mixture was quantified using the nCounter Digital Analyzer and all data analysis was performed using the nSolver metabolic panel (NanoString Technologies). All raw data was normalized with internal positive and negative controls to eliminate variability unrelated to the samples and then normalized to the selected housekeeping genes using Geometric Means methods. PBT147 and PBT030 cells were treated with ICG-001 at […] for 24 h (data not shown) or 72 h. Total RNA was collected for NanoString analysis from triplicate samples.
# PBT147 and PBT030 PBT cells were treated with ICG-001 (0, 5, or 10 μM) for 24-72 h. RNA expression was then analyzed using the NanoString nCounter platform (NanoString Technologies) by digitally detecting and counting in a single reaction without amplification using the NanoString human metabolic panel (City of Hope Molecular Pathology Core) (Geiss, Bumgarner et al. 2008). The data indicates change in a several metabolic markers and antigen presentation increased by PBT cells lines after treatment with ICG-001 at both time points. […] An increased p53 pathway and mitochondrial respiration was also observed at both time points and both cell lines.
# ICG-001 Affects PBT tumor metabolism. The N-termini of the Kat3 coactivators, i.e. CBP and p300, provide a highly evolutionarily conserved hub to integrate multiple signaling cascades to coordinate cellular metabolism with the regulation of cellular status and function and specifically that p300/β-Catenin mediated transcription is required to enhance mitochondrial OXPHOS during the initiation of cellular differentiation (Hu et al. 2021, Thomas & Kahn 2016). Therefore, patient-derived GBM cell lines PBT147 and PBT030 lines were treated with ICG-001 (0, 5, or 10 μM) for 24 h or 72 h (FIG. 17 shown differences in both cells lines at 72 h). RNA isolated from the treated PBT cells was analyzed using the NanoString nCounter metabolic panel (NanoString Technologies). This approach digitally detects and counts gene transcripts in a single reaction without amplification (analysis done by City of Hope Molecular Pathology Core) (Geiss et al. 2008).
# [4] = ICG-001 0, 5, or 10 μM, 24 h or 72 h
# [5] = ICG-001 0, 5, or 10 μM, both time points
smiles,measurement,setting,value
O=C1[C@H](Cc2ccc(O)cc2)N2C(=O)CCN(C(=O)NCc3ccccc3)[C@H]2CN1Cc1cccc2ccccc12 [ICG-001],CAR T cell viability and proliferation,[1],not toxic to T cells in vitro
same,CAR T cell viability and proliferation,[1]; listed as ICG001,not affecting Car T cell viability and proliferation
same,expression of Wnt/p300/β-catenin target gene EphB2,[2],upregulating
same,expression of Wnt/CBP/β-catenin target gene BIRC5/Survivin,[2]; ICG-001 0-10 μM,selectively downregulated
same,cell cycle-related genes,[3]; [4],Downregulation; also recorded: cell cycle decrease
same,"glutamine metabolism, ROS, mTOR, and p53 signaling",[3]; [4],Upregulation
same,glycolysis,[3]; [4],decrease
same,mitochondrial respiration,[3]; [4],increased
same,antigen presentation,[3]; [5],increased
same,immunosuppressive tryptophan/kynurenine metabolism,[3]; [5],concomitant decrease
same,fatty acid oxidation,"[3]; all treated cell lines, all timepoints",decreased in all treated cell lines at all timepoints; also recorded: decreased in all treated cells and all timepoints
